How the values were obtained:
[1] = system: rats with induced chronic heart failure (CHF); test: Cardiac function in rats with induced chronic heart failure; format: in vivo, Sprague-Dawley rats
Procedure: Both significance measures were at the P<0.05 level.
(§1) The following Examples 1 through 9 discuss data from rats with induced CHF. The Examples show many improved indicators associated with RTX treatment in CHF subjects. The rat models provide for comparison of epidural administration of RTX against epicardial administration of RTX and against various controls. For the epicardial data, RTX was administered directly to the epicardium by swab during open surgery contemporaneously with induced myocardial infarction (coronary artery ligation).
(§2) For epidural application of RTX, a small midline incision was made in the region of the T13-L1 thoracic vertebrae. Following dissection of the superficial muscles, two small holes (approximately 2 mm by 2 mm) were made in the left and right sides of the T13 vertebra. A polyethylene catheter (PE-10) was inserted into the […] via the left hole and gently advanced about 5.5-6 cm to the left T1 level at which the first injection (6 μg/mL, 10 μL) was made at a very slow speed to minimize the diffusion of RTX. Then the catheter was pulled back about 0.5 cm to left T2, T3, and T4, respectively, to perform serial injections (10 μL each) in each segment. Then the catheter was withdrawn and the same injection was repeated on the right side. A silicone gel was used to seal the hole in the T13 vertebra. The skin overlying the muscle was closed with a 3-0 polypropylene suture. Simple interrupted sutures were used to close the skin.
The experimental data included: body weight, heart weight, the ratio of heart weight to body weight (HW/BW), the ratio of wet lung weight to body weight (WLW/BW), the left ventricle end systolic pressure (LVESP), the left ventricle end diastolic pressure (LVEDP), maximum first derivative of left ventricular pressure (dp/dtmax), the minimum first derivative of left ventricular pressure (dp/dtmin), and infarct size. […] Both significance measures were at the P<0.05 level. […] The columns titled “Sham+vehicle” and “Sham+RTX” provide a comparison for sham rats without induced chronic heart failure, and without and with, respectively, epidural RTX treatment.
The experimental data included: body weight, heart weight, the ratio of heart weight to body weight (HW/BW), the ratio of wet lung weight to body weight (WLW/BW), mean arterial pressure (MAP), the left ventricle end diastolic pressure (LVEDP), heart rate, the maximum first derivative of left ventricular pressure (dp/dtmax), the minimum first derivative of left ventricular pressure (dp/dtmin), and infarct size. […] Both significance measures were at the P<0.05 level.

rats with induced CHF [2] = test: Long-term survival of rats with induced CHF over 28 weeks; format: in vivo, rat
Procedure: as §1, §2
FIG. 7 depicts the survival rate of rats with induced chronic heart failure with and without RTX treatment. In FIG. 7A, the treatment was epicardial. In FIG. 7B the treatment was epidural. […] In particular, without RTX treatment, seven of ten rats died during the 28-week period. But only two of nine rats with RTX treatment died during the same period.

rats with induced CHF [3] = test: Cardiac and renal sympathetic nerve activity (CSNA, RSNA) in CHF rats; format: in vivo, rat; conditions: for cardiac sympathetic nerve activity (CSNA): CHF
Procedure: (§3) In each case, administration of vehicle or RTX and vehicle was epidural. […] Both significance measures were at the P<0.05 level.
as §1, §2
In each case, administration of vehicle or RTX plus vehicle was epidural. […] Both significance measures were at the P<0.05 level.

rats with induced CHF [4] = test: End-systolic and end diastolic pressure volume relationship in CHF rats; format: in vivo, rat
Description: In each case, administration of vehicle or RTX and vehicle was epidural.
as §3, §1, §2
In each case, administration of vehicle or RTX and vehicle was epidural. […] CHF corresponds to a reduction in ESPVR, with appeared unaffected by epidural RTX.

[5] = system: spontaneously hypertensive rat (SHR); test: Arterial pressure in spontaneously hypertensive rat (SHR) model with established hypertension after epidural RTX; format: in vivo
Procedure: Open circles indicate the control population, while filled circles indicate the RTX-treated population. Epidural administration of RTX was by injection on Day 0, as indicated by the arrow on the graph.
The hypertensive model is a genetic spontaneously hypertensive rat (SHR). The early hypertension rats were treated at 8 weeks at age, reflecting a population in which blood pressure was only minimally elevated at the beginning of the study. Examples 10 and 11 illustrate treatment of subjects with hypertension and pre-hypertension (i.e., mild hypertension or early hypertension) and without induced CHF. For these subjects, epidural administration of RTX may be associated with an absolute reduction in blood pressure. Additionally, subjects treated with RTX may show less increase in blood pressure over time, as compared to a control population. Or, treatment may be associated with both an absolute reduction in pressure and lessened increase over time.
FIG. 14A-14C show further experimental results in a study using an (SHR) model. […] The established hypertensive rats were treated at 16 weeks at age, reflecting a population in which blood pressure was elevated at the beginning of the RTX administration. Open circles indicate the control population, while filled circles indicate the RTX-treated population. Epidural administration of RTX was by injection on Day 0, as indicated by the arrow on each graph. […] These subjects were not treated to induce myocardial infarction. The data allowed for comparison of SHR rats provided injection of the vehicle only (n=7) to those treated by injection of both vehicle and RTX (n=7).

TRPV1 = TRPV1 (Rattus norvegicus, UniProt O35433); test: Isolectin B4 (IB4) and TRPV1 expression in DRG neurons after epidural RTX; format: in vivo; design: from tissue; host or cells: rat dorsal root ganglion (DRG) neurons; conditions: epidural RTX vs vehicle-only, FIG. 3A
Procedure: as §2
FIGS. 3A-4B show experimental results for a rat study in accordance with an embodiment of the present application.

[6] = CHF + epidural RTX vs CHF + vehicle, P<0.05
[7] = established SHR, maintained throughout the study

TRPV1, sequence (O35433 whole entry): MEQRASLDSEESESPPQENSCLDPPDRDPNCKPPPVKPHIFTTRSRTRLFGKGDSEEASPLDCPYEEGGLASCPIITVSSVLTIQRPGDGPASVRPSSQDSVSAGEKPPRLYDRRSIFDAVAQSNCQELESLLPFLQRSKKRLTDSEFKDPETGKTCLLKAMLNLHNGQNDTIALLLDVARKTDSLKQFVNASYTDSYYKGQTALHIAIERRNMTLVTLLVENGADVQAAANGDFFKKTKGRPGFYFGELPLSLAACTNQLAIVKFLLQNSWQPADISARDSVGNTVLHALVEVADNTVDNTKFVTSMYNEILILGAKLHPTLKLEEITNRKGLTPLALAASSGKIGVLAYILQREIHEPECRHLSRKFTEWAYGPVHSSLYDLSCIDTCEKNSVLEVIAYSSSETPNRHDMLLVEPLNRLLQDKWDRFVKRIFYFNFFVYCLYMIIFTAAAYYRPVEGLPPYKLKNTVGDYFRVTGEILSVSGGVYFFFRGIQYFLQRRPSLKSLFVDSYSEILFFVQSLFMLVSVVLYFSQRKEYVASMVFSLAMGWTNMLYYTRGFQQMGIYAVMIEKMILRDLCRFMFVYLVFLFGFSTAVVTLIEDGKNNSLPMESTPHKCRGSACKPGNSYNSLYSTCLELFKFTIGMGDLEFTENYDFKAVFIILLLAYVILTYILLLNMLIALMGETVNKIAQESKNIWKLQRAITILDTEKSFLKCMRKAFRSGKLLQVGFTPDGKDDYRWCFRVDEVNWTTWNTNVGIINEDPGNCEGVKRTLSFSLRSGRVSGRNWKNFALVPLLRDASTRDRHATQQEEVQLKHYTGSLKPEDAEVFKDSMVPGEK

Structure (SMILES): C=C(C)[C@]12C[C@@H](C)[C@@]34O[C@](Cc5ccccc5)(O[C@@H]1[C@@H]3C=C(COC(=O)Cc1ccc(O)c(OC)c1)C[C@]1(O)C(=O)C(C)=C[C@@H]41)O2 [RTX, resiniferatoxin]
- left ventricle end diastolic pressure, increase over sham ([1]; CHF + epidural RTX (CHF + vehicle: 380%)): 60%
- infarct size, difference ([1]; CHF + epidural RTX vs CHF + vehicle): not being statistically significant
- heart weight [1, 6]: statistically significantly better
- heart weight as a percentage of body weight [1, 6]: statistically significantly better
- left ventricle end diastolic pressure [1, 6]: statistically significantly better
- minimum first derivative of left ventricular pressure (dp/dtmin) [1, 6]: statistically significantly better
- wet lung weight as a percentage of body weight [1, 6]: statistically significantly better
- cardiac function results, epidural versus epicardial administration ([1]; FIG. 5 column D vs FIG. 6 column H): comparable to the results achieved by epicardial administration, or are in some cases better
- survival improvement, epidural versus epicardial treatment (rats with induced CHF [2]; 28 weeks): roughly comparable improvement
- rats that died during the 28-week period (rats with induced CHF [2]; epidural RTX at T1-T4, n=9 (without RTX seven of ten)): two of nine
- long-term survival rate (rats with induced CHF [2]; epidural RTX vs no RTX, 28 weeks): significantly higher
- CHF-induced increase in basal cardiac sympathetic tone (CSNA and RSNA) (rats with induced CHF [3]; CHF + epidural RTX): not exhibited
- basal cardiac sympathetic tone, difference (rats with induced CHF [3]; CHF + epidural RTX vs non-CHF population): not statistically significant
- cardiac sympathetic nerve activity (CSNA) (rats with induced CHF [3]; epicardial RTX vs untreated CHF): substantially reduced
- cardiac sympathetic nerve activity (CSNA) (rats with induced CHF [3]; epidural RTX vs epicardial RTX): substantially lower
- cardiac sympathetic nerve activity (CSNA) (rats with induced CHF [3]; epidural RTX vs untreated CHF): substantially reduced
- end diastolic pressure volume relationship (EDPVR), difference (rats with induced CHF [4]; CHF + epidural RTX vs population without CHF): not statistically significant
- end diastolic pressure volume relationship (EDPVR) (rats with induced CHF [4]; CHF + epidural RTX vs untreated CHF): statistically significantly less
- end-systolic pressure volume relationship (ESPVR), CHF-related reduction (rats with induced CHF [4]; epidural RTX): unaffected
- day from which MAP reduction was significant vs vehicle-only ([5]; established SHR): ~8 days
- day from which diastolic arterial pressure differed significantly from vehicle-only ([5]; established SHR): ~8 days
- day from which systolic arterial pressure differed significantly from vehicle-only ([5]; established SHR): ~7 days
- mean arterial pressure (MAP) vs pre-injection baseline ([5]; established SHR, epidural RTX, observed throughout 55-day period): some reduction
- diastolic arterial pressure vs pre-injection baseline [5, 7]: decrease
- systolic arterial pressure vs pre-injection baseline [5, 7]: decrease
- MAP following treatment ([5]; established hypertensive rats): 125-130 mmHg
- isolectin B4 (IB4) and TRPV1 expression in DRG neurons (TRPV1): reduction
